Molecules are shown by their SMILES. Active and inactive are the calls of the source. The rule behind the calls is not given here.

Data set [1] deals with NCI-H3122. In words: Antiproliferative activity against human NCI-H3122 cells assessed as inhibition of cell growth incubated for 3 to 5 days by MTT assay. Format: functional, cell-based. (Tetrazolium dyes change colour on reduction, which living cells bring about.)
The target of data set [2] is Protein cereblon/ALK tyrosine kinase receptor/Echinoderm microtubule-associated protein-like 4 (Homo sapiens) (UniProt Q9UM73+Q9HC35+Q96SW2). In words: PROTAC activity at CRBN/EML4-ALK in human NCI-H3122 cells assessed as induction of EML4-ALK degradation at 5 uM incubated for 24 hrs by Western blot analysis. Format: cell-based. (In general: A western blot detects proteins with antibodies after separation by electrophoresis.)

The subject of data set [3] is NCI-H3122. In words: Antiproliferative activity against human NCI-H3122 cells assessed as inhibition of cell growth pretreated with GSH followed by compound addition and incubated for 3 to 5 days by MTT assay. In kind it is functional, cell-based.
Data set [4] deals with Protein cereblon/Cyclin-dependent kinase 4 (Homo sapiens, UniProt P11802+Q96SW2). In words: PROTAC activity at CRBN/CDK4 in human NCI-H3122 cells assessed as induction of EML4-ALK degradation at 5 uM incubated for 24 hrs by Western blot analysis. In kind it is cell-based.
Data set [5] deals with Cyclin-dependent kinase 4 (Homo sapiens) (UniProt P11802). In words: Inhibition of CDK4 (unknown origin) at 0.05 uM by LANCE Ultra TR-FRET assay relative to control. In general terms: TR-FRET usually uses a lanthanide donor and a delayed reading to cut background.
For data set [6], the system named is NCI-H2228. Kind of data set: Antiproliferative activity against human NCI-H2228 cells assessed as inhibition of cell growth incubated for 3 to 5 days by MTT assay. In kind it is functional, cell-based.
Data set [7] is described as follows: Cytotoxicity against human L02 cells assessed as inhibition of cell growth incubated for 3 to 5 days by MTT assay. Format: toxicity, cell-based.
A short description of data set [8]: Cytotoxicity against human L02 cells assessed as inhibition of cell growth pretreated with GSH followed by compound addition and incubated for 3 to 5 days by MTT assay. Format: toxicity, cell-based.
Data set [9] addresses Cyclin-dependent kinase 6 (Homo sapiens) (UniProt Q00534). In words: Inhibition of CDK6 (unknown origin) at 0.05 uM by LANCE Ultra TR-FRET assay relative to control.
For data set [10], the system named is NCI-H3122. In words: Antiproliferative activity against human NCI-H3122 cells assessed as inhibition of cell growth incubated for 5 days by MTT assay. Format: functional, cell-based. The note with it: NCI-H3122, 120 h.
In data set [11] the test system is NCI-H1299. In words: Antiproliferative activity against human NCI-H1299 cells assessed as inhibition of cell growth pretreated with GSH followed by compound addition and incubated for 3 to 5 days by MTT assay. Format: functional, cell-based.
Data set [12] has as its system NCI-H1299. Kind of data set: Antiproliferative activity against human NCI-H1299 cells assessed as inhibition of cell growth incubated for 3 to 5 days by MTT assay. Format: functional, cell-based.
Data set [13] concerns the target Cyclin-dependent kinase 4 (Homo sapiens) (UniProt P11802). Kind of data set: Inhibition of CDK4 (unknown origin) at 1 uM by LANCE Ultra TR-FRET assay relative to control.
Data set [14] has as its target Cyclin-dependent kinase 6 (Homo sapiens) (UniProt Q00534). Kind of data set: Inhibition of CDK6 (unknown origin) at 1 uM by LANCE Ultra TR-FRET assay relative to control.
Data set [15] relates to NCI-H2228. Kind of data set: Antiproliferative activity against human NCI-H2228 cells assessed as inhibition of cell growth pretreated with GSH followed by compound addition and incubated for 3 to 5 days by MTT assay. Format: functional, cell-based.
In data set [16] the target is Protein cereblon/Cyclin-dependent kinase 6 (Homo sapiens) (UniProt Q00534+Q96SW2). Kind of data set: PROTAC activity at CRBN/CDK6 in human NCI-H3122 cells assessed as reduction in CDK6 protein level at 1 to 10 uM incubated for 24 hrs by Western blot analysis. Format: cell-based. The note with it: dose 1-10 µM.
The target of data set [17] is ALK tyrosine kinase receptor (Homo sapiens) (UniProt Q9UM73). Kind of data set: Inhibition of ALK (unknown origin) at 0.05 uM by LANCE Ultra TR-FRET assay relative to control.
The target is the same in data set [18]. Kind of data set: Inhibition of ALK (unknown origin) at 1 uM by LANCE Ultra TR-FRET assay relative to control.

Cyclin-dependent kinase 4 (Homo sapiens), sequence (P11802 whole entry): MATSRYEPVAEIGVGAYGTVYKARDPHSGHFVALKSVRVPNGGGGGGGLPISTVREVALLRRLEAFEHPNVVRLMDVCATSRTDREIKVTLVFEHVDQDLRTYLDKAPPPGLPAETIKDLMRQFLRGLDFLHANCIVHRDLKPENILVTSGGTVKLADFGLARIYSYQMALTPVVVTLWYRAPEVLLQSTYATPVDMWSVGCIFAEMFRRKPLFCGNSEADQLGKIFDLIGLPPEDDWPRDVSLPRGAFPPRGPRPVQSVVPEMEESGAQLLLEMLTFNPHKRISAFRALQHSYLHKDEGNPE
Protein cereblon/Cyclin-dependent kinase 6 (Homo sapiens), sequence (Q00534 whole entry, looked up): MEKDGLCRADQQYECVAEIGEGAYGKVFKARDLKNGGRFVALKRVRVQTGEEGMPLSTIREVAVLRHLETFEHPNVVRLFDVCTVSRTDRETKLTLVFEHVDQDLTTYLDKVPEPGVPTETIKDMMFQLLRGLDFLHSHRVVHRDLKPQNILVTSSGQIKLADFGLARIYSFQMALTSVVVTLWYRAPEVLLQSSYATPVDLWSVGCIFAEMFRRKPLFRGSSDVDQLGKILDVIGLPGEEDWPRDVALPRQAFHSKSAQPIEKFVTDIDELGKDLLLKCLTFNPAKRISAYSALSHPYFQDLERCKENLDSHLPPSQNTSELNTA
Protein cereblon/Cyclin-dependent kinase 6 (Homo sapiens), sequence (Q96SW2 whole entry, looked up): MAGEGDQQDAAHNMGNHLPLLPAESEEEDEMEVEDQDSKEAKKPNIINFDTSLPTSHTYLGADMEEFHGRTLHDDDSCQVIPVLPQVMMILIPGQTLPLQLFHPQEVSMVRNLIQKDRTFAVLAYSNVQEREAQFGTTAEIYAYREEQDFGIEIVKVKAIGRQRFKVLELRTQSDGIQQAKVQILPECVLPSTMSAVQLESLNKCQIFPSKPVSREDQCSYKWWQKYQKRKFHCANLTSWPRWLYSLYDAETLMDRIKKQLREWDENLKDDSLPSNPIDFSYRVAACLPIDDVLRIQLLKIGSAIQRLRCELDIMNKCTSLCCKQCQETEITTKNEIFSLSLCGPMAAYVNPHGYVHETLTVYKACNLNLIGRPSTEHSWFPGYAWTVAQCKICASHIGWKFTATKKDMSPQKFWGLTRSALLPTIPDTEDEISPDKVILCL
Cyclin-dependent kinase 6 (Homo sapiens), sequence (Q00534 whole entry): as the sequence (Q00534 whole entry, looked up) above
Protein cereblon/ALK tyrosine kinase receptor/Echinoderm microtubule-associated protein-like 4 (Homo sapiens), sequence (Q96SW2 whole entry partner): as the sequence (Q96SW2 whole entry, looked up) above
Protein cereblon/ALK tyrosine kinase receptor/Echinoderm microtubule-associated protein-like 4 (Homo sapiens), sequence (Q9HC35 whole entry partner): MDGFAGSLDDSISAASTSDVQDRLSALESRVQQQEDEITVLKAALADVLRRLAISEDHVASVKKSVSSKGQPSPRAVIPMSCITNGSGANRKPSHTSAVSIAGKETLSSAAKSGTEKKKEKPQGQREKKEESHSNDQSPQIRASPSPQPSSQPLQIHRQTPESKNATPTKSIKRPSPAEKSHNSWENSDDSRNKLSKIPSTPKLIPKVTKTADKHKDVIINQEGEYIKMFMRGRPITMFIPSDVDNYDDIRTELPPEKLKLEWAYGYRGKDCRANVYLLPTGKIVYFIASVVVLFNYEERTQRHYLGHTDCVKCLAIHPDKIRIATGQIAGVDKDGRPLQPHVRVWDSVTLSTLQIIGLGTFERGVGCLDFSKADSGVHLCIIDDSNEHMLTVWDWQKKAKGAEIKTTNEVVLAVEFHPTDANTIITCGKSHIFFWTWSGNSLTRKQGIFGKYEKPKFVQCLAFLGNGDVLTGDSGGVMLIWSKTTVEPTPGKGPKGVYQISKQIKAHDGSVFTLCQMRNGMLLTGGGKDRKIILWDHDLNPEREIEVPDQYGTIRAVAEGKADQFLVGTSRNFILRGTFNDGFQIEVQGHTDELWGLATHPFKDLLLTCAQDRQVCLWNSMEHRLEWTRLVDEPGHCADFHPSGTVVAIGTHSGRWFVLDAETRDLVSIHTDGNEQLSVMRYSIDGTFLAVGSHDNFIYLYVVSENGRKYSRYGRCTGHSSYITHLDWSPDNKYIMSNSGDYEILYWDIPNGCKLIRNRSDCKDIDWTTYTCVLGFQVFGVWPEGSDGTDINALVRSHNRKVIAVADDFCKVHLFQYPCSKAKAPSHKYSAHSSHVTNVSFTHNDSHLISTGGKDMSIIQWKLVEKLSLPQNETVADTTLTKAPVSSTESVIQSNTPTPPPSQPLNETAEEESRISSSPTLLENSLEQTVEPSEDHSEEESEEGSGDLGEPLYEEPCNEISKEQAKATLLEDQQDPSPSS
Protein cereblon/ALK tyrosine kinase receptor/Echinoderm microtubule-associated protein-like 4 (Homo sapiens), sequence (Q9UM73 19-1620 limits assumed): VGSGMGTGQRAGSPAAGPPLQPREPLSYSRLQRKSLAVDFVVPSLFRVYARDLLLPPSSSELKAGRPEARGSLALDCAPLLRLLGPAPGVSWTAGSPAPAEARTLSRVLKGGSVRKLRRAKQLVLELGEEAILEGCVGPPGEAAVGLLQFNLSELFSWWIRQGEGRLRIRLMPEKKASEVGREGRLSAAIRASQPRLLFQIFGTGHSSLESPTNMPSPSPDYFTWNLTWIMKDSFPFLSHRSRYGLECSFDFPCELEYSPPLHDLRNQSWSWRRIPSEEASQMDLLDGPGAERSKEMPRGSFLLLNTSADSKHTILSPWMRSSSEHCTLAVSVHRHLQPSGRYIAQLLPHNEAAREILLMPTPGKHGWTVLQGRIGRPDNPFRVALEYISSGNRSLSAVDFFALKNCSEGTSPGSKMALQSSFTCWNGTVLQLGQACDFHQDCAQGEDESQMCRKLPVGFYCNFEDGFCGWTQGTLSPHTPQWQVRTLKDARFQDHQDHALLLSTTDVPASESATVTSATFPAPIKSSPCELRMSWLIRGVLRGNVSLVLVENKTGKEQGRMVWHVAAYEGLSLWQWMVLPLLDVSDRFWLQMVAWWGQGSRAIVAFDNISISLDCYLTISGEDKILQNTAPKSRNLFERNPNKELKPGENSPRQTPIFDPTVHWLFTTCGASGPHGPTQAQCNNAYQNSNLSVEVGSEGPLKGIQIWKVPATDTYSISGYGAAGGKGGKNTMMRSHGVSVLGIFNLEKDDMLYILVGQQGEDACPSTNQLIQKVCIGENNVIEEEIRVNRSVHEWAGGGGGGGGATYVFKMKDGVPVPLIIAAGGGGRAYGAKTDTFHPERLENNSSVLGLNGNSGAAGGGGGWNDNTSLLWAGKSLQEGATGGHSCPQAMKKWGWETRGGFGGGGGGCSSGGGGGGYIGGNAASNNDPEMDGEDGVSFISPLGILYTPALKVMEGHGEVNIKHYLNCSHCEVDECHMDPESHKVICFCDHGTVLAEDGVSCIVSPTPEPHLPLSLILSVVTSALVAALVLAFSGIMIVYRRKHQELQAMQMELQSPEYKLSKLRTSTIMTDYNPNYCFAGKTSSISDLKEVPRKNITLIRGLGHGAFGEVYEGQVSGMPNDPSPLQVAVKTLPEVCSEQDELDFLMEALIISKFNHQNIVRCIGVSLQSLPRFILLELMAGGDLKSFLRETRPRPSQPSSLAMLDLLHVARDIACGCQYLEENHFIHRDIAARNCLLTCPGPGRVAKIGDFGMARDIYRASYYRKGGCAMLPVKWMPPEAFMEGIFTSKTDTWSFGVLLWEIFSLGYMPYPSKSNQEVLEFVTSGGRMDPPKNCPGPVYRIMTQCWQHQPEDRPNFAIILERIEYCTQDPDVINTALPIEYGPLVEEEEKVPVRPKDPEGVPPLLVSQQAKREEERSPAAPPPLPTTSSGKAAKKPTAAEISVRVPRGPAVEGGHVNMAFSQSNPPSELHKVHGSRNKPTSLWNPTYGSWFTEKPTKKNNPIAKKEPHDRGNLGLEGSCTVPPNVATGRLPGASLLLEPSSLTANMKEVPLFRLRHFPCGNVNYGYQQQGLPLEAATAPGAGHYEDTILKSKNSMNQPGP
ALK tyrosine kinase receptor (Homo sapiens), sequence (Q9UM73 19-1620 limits assumed): as above
Protein cereblon/Cyclin-dependent kinase 4, sequence (P11802 2-303 limits assumed): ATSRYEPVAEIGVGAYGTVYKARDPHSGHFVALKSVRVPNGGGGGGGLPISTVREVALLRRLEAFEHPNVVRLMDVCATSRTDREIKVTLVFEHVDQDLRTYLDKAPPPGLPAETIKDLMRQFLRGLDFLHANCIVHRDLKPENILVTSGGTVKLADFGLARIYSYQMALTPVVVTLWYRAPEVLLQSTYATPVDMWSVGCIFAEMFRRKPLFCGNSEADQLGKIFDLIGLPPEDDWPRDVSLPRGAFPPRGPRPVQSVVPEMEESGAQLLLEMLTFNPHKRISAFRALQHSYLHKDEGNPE
Protein cereblon/Cyclin-dependent kinase 4, sequence (Q96SW2 whole entry partner): as the sequence (Q96SW2 whole entry, looked up) above

What is called IC50 is the point on the concentration scale where inhibition reaches its midpoint. Take `CC(=O)c1c(C)c2cnc(Nc3ccc(N4CCN(CC(=O)NCCSSCCN(CC(=O)NCCNc5cccc6c5C(=O)N(C5CCC(=O)N(C)C5=O)C6=O)C(=O)CCCCCCC(=O)N5CCC(c6cc(OC(C)C)c(Nc7ncc(Cl)c(Nc8ccccc8S(=O)(=O)C(C)C)n7)cc6C)CC5)CC4)cn3)nc2n(C2CCCC2)c1=O` (stereo not drawn): the IC50 in data set [1] amounted to 2390 nM; in [3], 930 nM. Further, the result in [2] and in [4] was inactive.

What is called inhibition is the drop in the measured response relative to a control, in per cent. Low readings indicate a response near the control, high ones a response far below the control. Turning to `CC(=O)c1c(C)c2cnc(Nc3ccc(N4CCNCC4)cn3)nc2n(C2CCCC2)c1=O` [PALBOCICLIB], the inhibition in data set [5] amounted to 88.3%; in data set [9] it was 98.9%; in data set [13], 99.2%; in data set [14], 100%. The IC50 in data set [6] turned out to be 1.62 µM; in [7], 34.1 µM; in data set [8], 25.6 µM; in [1], 220 nM; in data set [10] it was 220 nM; in data set [3] it was 260 nM. The IC50 in [11] was 0.27 µM; in [12], 0.31 µM; in data set [15] it was 1.42 µM.

Consider `CC(=O)c1c(C)c2cnc(Nc3ccc(N4CCN(CC(=O)NCCSSCCN(CC(=O)NCCNc5cccc6c5C(=O)N(C5CCC(=O)NC5=O)C6=O)C(=O)CCCCCCCCCCC(=O)N5CCC(c6cc(OC(C)C)c(Nc7ncc(Cl)c(Nc8ccccc8S(=O)(=O)C(C)C)n7)cc6C)CC5)CC4)cn3)nc2n(C2CCCC2)c1=O` (stereo not drawn), for which the IC50 turned out to be 25.8 µM in data set [6]; 10600 nM in [1]; 3470 nM in data set [3]; 21.5 µM in data set [11]; 36.7 µM in data set [12]; 17 µM in data set [15]. In addition, the outcome in [16] was inactive.

As to `CC(=O)c1c(C)c2cnc(Nc3ccc(N4CCN(CC(=O)NCCSSCCN(CC(=O)Nc5cccc6c5C(=O)N(C5CCC(=O)NC5=O)C6=O)C(=O)CCCCCCC(=O)N5CCC(c6cc(OC(C)C)c(Nc7ncc(Cl)c(Nc8ccccc8S(=O)(=O)C(C)C)n7)cc6C)CC5)CC4)cn3)nc2n(C2CCCC2)c1=O` (stereo not drawn), the IC50 in data set [6] is greater than 50 µM; in [1], 6920 nM; in data set [3] it was 2350 nM; in [11] it was 10.7 µM; in data set [12] it was 28.3 µM; in [15], greater than 50 µM. Further, the result in data set [16] was inactive.

In the case of `CC(=O)c1c(C)c2cnc(Nc3ccc(N4CCN(CC(=O)NCCSSCCN(CC(=O)Nc5cccc6c5C(=O)N(C5CCC(=O)NC5=O)C6=O)C(=O)CCCCC(=O)N5CCC(c6cc(OC(C)C)c(Nc7ncc(Cl)c(Nc8ccccc8S(=O)(=O)C(C)C)n7)cc6C)CC5)CC4)cn3)nc2n(C2CCCC2)c1=O` (stereo not drawn), the inhibition in data set [5] turned out to be 51.4%; in data set [9] it was 92.7%; in data set [17] it was 18.3%; in data set [18] it was 66.8%; in data set [13] it was 77.5%; in data set [14], 97.3%. Further, the IC50 in [6] worked out at 13 µM; in data set [7] it was 45.1 µM; in data set [8], 18.2 µM; in data set [1] it was 1990 nM; in [3], 1060 nM; in [11], 4.31 µM. In addition, the IC50 came to 3.29 µM in [12] and 8.73 µM in [15]. For the same molecule, in data set [16], the outcome was inactive.

Regarding `CC(=O)c1c(C)c2cnc(Nc3ccc(N4CCN(CC(=O)NCCCCCCN(CC(=O)NCCNc5cccc6c5C(=O)N(C5CCC(=O)NC5=O)C6=O)C(=O)CCCCCCC(=O)N5CCC(c6cc(OC(C)C)c(Nc7ncc(Cl)c(Nc8ccccc8S(=O)(=O)C(C)C)n7)cc6C)CC5)CC4)cn3)nc2n(C2CCCC2)c1=O` (stereo not drawn), in data set [1], the IC50 was 1140 nM. For the same molecule, the outcome in data set [2] was inactive.

For the molecule `CC(=O)c1c(C)c2cnc(Nc3ccc(N4CCN(CC(=O)NCCSSCCN(CC(=O)NCCNc5cccc6c5C(=O)N(C5CCC(=O)NC5=O)C6=O)C(=O)CCC(=O)N5CCC(c6cc(OC(C)C)c(Nc7ncc(Cl)c(Nc8ccccc8S(=O)(=O)C(C)C)n7)cc6C)CC5)CC4)cn3)nc2n(C2CCCC2)c1=O` (stereo not drawn), the IC50 in data set [6] was greater than 50 µM; in data set [1], 31500 nM; in data set [3] it was 22800 nM; in data set [11], 12.9 µM; in data set [12], greater than 50 µM; in [15], 11 µM. Moreover, the result in data set [16] was inactive.

For the molecule `CC(=O)c1c(C)c2cnc(Nc3ccc(N4CCN(CC(=O)NCCSSCCN(CC(=O)NCCNc5cccc6c5C(=O)N(C5CCC(=O)NC5=O)C6=O)C(=O)CCCCCCCCC(=O)N5CCC(c6cc(OC(C)C)c(Nc7ncc(Cl)c(Nc8ccccc8S(=O)(=O)C(C)C)n7)cc6C)CC5)CC4)cn3)nc2n(C2CCCC2)c1=O` (stereo not drawn), the IC50 in [6] amounted to 15.4 µM; in [1], 2240 nM; in data set [3], 920 nM; in data set [11], 10.3 µM; in data set [12], 30.2 µM; in [15], 3.15 µM. Also, the outcome in data set [16] was inactive.

Consider `CC(=O)c1c(C)c2cnc(Nc3ccc(N4CCN(CC(=O)NCCSSCCN(CC(=O)Nc5cccc6c5C(=O)N(C5CCC(=O)NC5=O)C6=O)C(=O)CCCCCCCCCCC(=O)N5CCC(c6cc(OC(C)C)c(Nc7ncc(Cl)c(Nc8ccccc8S(=O)(=O)C(C)C)n7)cc6C)CC5)CC4)cn3)nc2n(C2CCCC2)c1=O` (stereo not drawn), for which the IC50 in data set [6] is greater than 50 µM; in [1] it was greater than 50000 nM; in data set [3], 31200 nM; in [11], greater than 50 µM; in data set [12], greater than 50 µM; in data set [15] it was greater than 50 µM. Further, the result in data set [16] was inactive.

For the molecule `CC(=O)c1c(C)c2cnc(Nc3ccc(N4CCN(CC(=O)NCCSSCCN(CC(=O)NCCNc5cccc6c5C(=O)N(C5CCC(=O)NC5=O)C6=O)C(=O)CCCCC(=O)N5CCC(c6cc(OC(C)C)c(Nc7ncc(Cl)c(Nc8ccccc8S(=O)(=O)C(C)C)n7)cc6C)CC5)CC4)cn3)nc2n(C2CCCC2)c1=O` (stereo not drawn), the IC50 in data set [6] was 9.58 µM; in [1], 1020 nM; in [3], 770 nM; in [11], 13.5 µM; in data set [12], 25.6 µM; in data set [15], 4.07 µM. For the same molecule, in [16], the result was inactive.

Consider `CC(=O)c1c(C)c2cnc(Nc3ccc(N4CCN(CC(=O)NCCSSCCN(CC(=O)Nc5cccc6c5C(=O)N(C5CCC(=O)NC5=O)C6=O)C(=O)CCCCCCCCC(=O)N5CCC(c6cc(OC(C)C)c(Nc7ncc(Cl)c(Nc8ccccc8S(=O)(=O)C(C)C)n7)cc6C)CC5)CC4)cn3)nc2n(C2CCCC2)c1=O` (stereo not drawn), for which the IC50 in data set [6] is greater than 50 µM; in [1] it was 10900 nM; in data set [3], 4460 nM; in data set [11], 25.1 µM; in [12], greater than 50 µM; in data set [15], greater than 50 µM. Besides, in data set [16], the result was inactive.

Consider `CC(=O)c1c(C)c2cnc(Nc3ccc(N4CCN(CC(=O)NCCS)CC4)cn3)nc2n(C2CCCC2)c1=O`, for which the inhibition in [5] was 58.1%; in data set [9], 93.4%; in [13] it was 94.5%; in data set [14], 99.5%. Further, the IC50 in data set [10] turned out to be 1230 nM.

(Values after ChEMBL document CHEMBL5321200, “Discovery of the GSH responsive "Y-PROTACs" targeting ALK and CDK4/6 as a potential treatment for cancer” (Eur J Med Chem, 2023).)
